Test results as given in patent publication US10918648B2, “Estrogen receptor modulator combinations” (The Regents of the University of California, priority 2016, dated 2021).

Experiments:
estrogen receptor-alpha = target: T1, estrogen receptor-alpha (Homo sapiens, UniProt P03372); assay: ER down-regulation, Western immunoblot of ERα protein in MCF-7 cells; assay type: cell-based; settings: for estrogen receptor-alpha expression (ERα protein levels, Western immunoblot): 1 μM or 10 μM, 48 hrs, in the presence of 1 nM estradiol, FIG. 3A
T1 construct: MCF-7 breast cancer cells with high expression of ERα protein were treated with; endogenous in cells; host or cells: MCF-7 human breast cancer cells
T1 sequence (P03372 1-595): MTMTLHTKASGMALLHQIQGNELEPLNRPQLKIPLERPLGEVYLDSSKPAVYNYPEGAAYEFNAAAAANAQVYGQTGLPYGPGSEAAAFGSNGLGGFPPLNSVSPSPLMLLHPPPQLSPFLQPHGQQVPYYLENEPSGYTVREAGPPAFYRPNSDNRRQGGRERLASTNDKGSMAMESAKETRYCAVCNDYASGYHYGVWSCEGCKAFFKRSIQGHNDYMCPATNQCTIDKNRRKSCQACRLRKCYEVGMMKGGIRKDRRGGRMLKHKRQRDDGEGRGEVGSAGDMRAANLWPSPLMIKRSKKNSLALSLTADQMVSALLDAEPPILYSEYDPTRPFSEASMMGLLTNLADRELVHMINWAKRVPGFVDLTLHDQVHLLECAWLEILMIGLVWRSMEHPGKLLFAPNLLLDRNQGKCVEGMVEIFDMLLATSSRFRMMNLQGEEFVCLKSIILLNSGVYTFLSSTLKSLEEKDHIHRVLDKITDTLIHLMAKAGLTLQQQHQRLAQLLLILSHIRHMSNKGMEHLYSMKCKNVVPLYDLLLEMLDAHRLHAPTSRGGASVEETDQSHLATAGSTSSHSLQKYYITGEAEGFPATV
Protocol: MCF-7 breast cancer cells were maintained in estrogen-free conditions 48 h before experiments as described above. Cells were then incubated with vehicle control or either 1 μM or 10 μM antiestrogens in the presence of 1 nM estradiol-1713 for 48 hrs. After lysis, total cell proteins were resolved by 4-15% SDS-PAGE, transferred to polyvinylidene difluoride membranes and probed with mouse monoclonal antibody directed against estrogen receptor-alpha (Assay Designs, #SRA1010). Membranes were stripped and re-probed with Ribosomal Protein L13A (Santa Cruz Biotechnology, C11) as a loading control (45).
Fulvestrant (Faslodex®) has been characterized as a selective ERα downregulator and a pure anti-estrogen. Fulvestrant inhibits the transcriptional response to estrogen stimulation and induces the degradation of estrogen receptor proteins (46,47). […] One problem with fulvestrant is that the drug requires intramuscular injection and may not achieve optimal antitumor effects due to the limited doses that can be administered by this drug delivery method. […] MCF-7 breast cancer cells with high expression of ERα protein were treated with estradiol-170 and either 1 μM or 10 μM concentrations of JD128 and JD140 for 48 hours. […] MCF-7 breast cancer cells were estrogen-deprived for 48 hrs, then treated with 1 nM estradiol-170 (E2) or antiestrogens JD128 (128) or JD140 (140) at 1 μM or 10 μM concentrations in the presence of 1 nM estradiol-170. After 48 hrs, PAGE and immunoblotting was performed with antibody directed to anti-ERα (SRA1010) and anti-RPL13A for a loading control.
ER down-regulation: To determine if selected compounds can down-regulate ER protein, we treated cells for 24-48 hrs in vitro with candidate compounds at varying doses. Then, cells were disrupted and prepared for PAGE and Western immunoblots using anti-ERα antibodies (see FIG. 6A). […] Those ERDs with optimal activity in down-regulating ER were investigated further in the chemistry laboratory to further refine and develop such agents. […]

[1] = tested on: MAPK: ERK-1 (p44) and ERK-2 (p42); assay: Estrogen-induced MAPK phosphorylation, Western blot in MCF-7 cells; assay type: cell-based, human; settings: MCF-7 parent cells, 1 nM estradiol (E2); antagonists pre-incubated at 1000 nM; FIG. 7A
Protocol: ERD inhibition of phosphorylation of MAPK, at both extracellular signal-regulated kinases ERK-1 (p44) and ERK-2 (p42) and downstream effects. […] Thus, we measured estrogen-induced phosphorylation of MAPK by established methods (9,15,16). Briefly, MCF-7 parental cells were estrogen deprived for 48 hrs, then treated with 1 nM estradiol-1713 in the presence of new compounds (10 nM-10 μM) to be tested for antagonist activity. After treatments, cell lysates were separated by SDS-PAGE followed by Western blot using a polyclonal antibody directed to phospho-p44/p42 MAP kinase (Thr202/Tyr204) (Cell Signaling). Immunodetection with antibody against total p44/p42 (Cell Signaling) was done as a control for gel loading. […] ERD S15 was as effective as fulvestrant in inhibiting the rapid estrogen-induced MAPK phosphorylation in breast tumor cells in vitro. […] E2 but not vehicle (CN) induced rapid phosphorylation of ERK-1 (p44) and ERK-2 (p42). This activation was prevented when cells were pre-incubated with 1000 nM ICI 182,780 (ICI; Faslodex) or 1000 nM compound S15 in the presence of estradiol (E2).

[2] = tested on: Tamoxifen-resistant human MCF-7 breast cancer cells; assay: Endocrine-resistant breast cancer cell proliferation in vitro; assay type: cell-based; settings: 72 hrs; 50 nM Palbociclib, 10 nM S128, or both; P<0.001 vs control and 100 nM tamoxifen; FIG. 10
Protocol: Tamoxifen-resistant human MCF-7 breast cancer cells were treated in vitro with control vehicle (CON), 100 nM tamoxifen (TAM), 50 nM Palbociclib (Pb) or 10 nM S128 or with Palbociclib in combination with S128 (S128+Pb) over 72 hrs. […] (FIG. 10)

Compound	ER protein levels (Western immunoblot) (estrogen receptor-alpha; 24 hours, 10, 100 and 1000 nM, FIG. 6A)	phosphorylation of MAPK (ERK-1 p44 and ERK-2 p42) [1]	estrogen receptor-alpha expression (ERα protein levels, Western immunoblot) (estrogen receptor-alpha)	endocrine-resistant breast cancer cell proliferation [2]
C[C@]12C[C@H](Oc3ccc(N)cc3)[C@@H]3c4ccc(O)cc4CC[C@H]3[C@@H]1CC[C@@H]2O [JD105, (8S,9S,11S,13S,14S,17S)-11-(4-aminophenoxy)-13-methyl-7,8,9,11,12,13,14,15,16,17-decahydro-6H-cyclopenta[a]phenanthrene-3,17-diol]	reduces ER protein levels	inhibits phosphorylation of MAPK	–	–
C[C@]12C[C@H](Oc3ccc(N)c(C(F)(F)F)c3)[C@@H]3c4ccc(O)cc4CC[C@H]3[C@@H]1CC[C@@H]2O [JD128, (8S,9S,11S,13S,14S,17S)-11-(4-Amino-3-(trifluoromethyl)phenoxy)-13-methyl-7,8,9,11,12,13,14,15,16,17-decahydro-6H-cyclopenta[a]phenanthrene-3,17-diol]	–	–	greatest effect at suppressing estrogen receptor-alpha expression	significantly different from control
C[C@]12C[C@H](Oc3ccc(NC(=O)CCCCN4CCCCC4)c(F)c3)[C@@H]3c4ccc(O)cc4CC[C@H]3[C@@H]1CC[C@@H]2O [JD140, N-(4-(((8S,9S,11S,13S,14S,17S)-3,17-Dihydroxy-13-methyl-7,8,9,11,12,13,14,15,16,17-deca-hydro-6H-cyclopenta[a]phenanthren-11-yl)oxy)-2-fluorophenyl)-5-(piperidin-1-yl)pentan-amide]	–	–	down-regulated	–
